Source: patent US20040039031A1, “Novel pharmaceutical compositions having an antidiabetic action, and process for their preparation” (priority 2000, published 2004)

Tests used:
[1] = test system: NIDD STZ rats; experiment: Streptozotocin-induced NIDD diabetic rats, eight-day oral treatment, plasma biological parameters; assay type: in vivo, male Wistar rats; settings: for Glycaemia at D29 as percent of D21: values at D21 taken as 100%
Protocol: 40 male Wistar rats (Charles River, Saint Aubin les Elbeuf, France), with an average weight of 280 g, are used in this experiment. The animals are housed for one week in a standardised animal house, the following parameters of which are controlled: The forty rats are made diabetic by IP administration of 50 mg/kg of streptozotocin dissolved in physiological saline (a single administration). […] For each rat, 100 μl of blood are collected by venepuncture in a caudal vein, onto heparin, at time D0 (before the administration of STZ), at time D21 (21 days after STZ, before the treatments) and at D29 (after eight days of treatment). The samples are immediately centrifuged (10 minutes at 4000 rpm) and the plasma is separated from the blood cells. The samples are frozen until the time of determination of the biological parameters. After thawing the plasma samples, the above parameters are determined by enzymatic methods, using a COBAS automated machine (Roche). The glycaemia is measured by the hexokinase method; the cholesterol by the enzymatic final Randox point method; the triglycerides by the GPO-PAP method; the lactic acid by the lactic dehydrogenase method. The circulating insulin is measured by radioimmunoassay using CEA kits. The efficacy of the treatments is evaluated between […] by a t test adapted to paired series (for each rat, the value at D21 relative to D29 serves as the control).

[2] = test system: NIDD rats, of STZ type; experiment: Earlier study of glibenclamide 0.5 mg/kg daily in NIDD rats of STZ type; assay type: in vivo; settings: daily dose of 0.5 mg/kg
[3] = glibenclamide 1 mg/kg/day group, D0 (before STZ)
[4] = glibenclamide 1 mg/kg/day group, D21 (21 days after STZ, before treatment)
[5] = glibenclamide 1 mg/kg/day orally in two doses, D29 (after eight days of treatment)
[6] = glibenclamide 2 mg/kg/day group, D0 (before STZ)
[7] = glibenclamide 2 mg/kg/day group, D21 (21 days after STZ, before treatment)
[8] = glibenclamide 2 mg/kg/day orally in two doses, D29 (after eight days of treatment)
[9] = glibenclamide higher dose 2 mg/kg/day, D29 vs D21
[10] = glibenclamide low dose 1 mg/kg/day, D29 vs D21
[11] = metformin 30 mg/kg/day group, D0 (before STZ)
[12] = metformin 30 mg/kg/day group, D21 (21 days after STZ, before treatment)
[13] = metformin (hydrochloride) 30 mg/kg/day orally in two doses, D29 (after eight days of treatment)

Which results are given for glibenclamide?
Glycaemia at D29 as percent of D21 ([1]; Glibenclamide 2 mg/kg/day): 93.49 +/− 1.15%; Cholesterol [1, 3]: 1.03 +/− 0.04 mM/l; Glycaemia [1, 3]: 6.39 +/− 0.17 mM/l; Insulinaemia [1, 3]: 12.8 +/− 0.8 μU/ml; Lactates [1, 3]: 2.19 +/− 0.07 mM/l; Triglycerides [1, 3]: 0.87 +/− 0.05 mM/l; Cholesterol [1, 4]: 1.65 +/− 0.08 mM/l; Glycaemia [1, 4]: 14.22 +/− 0.65 mM/l; Insulinaemia [1, 4]: 16.7 +/− 0.8 μU/ml; Lactates [1, 4]: 2.59 +/− 0.10 mM/l; Triglycerides [1, 4]: 1.04 +/− 0.10 mM/l; Cholesterol [1, 5]: 1.42 +/− 0.08 mM/l; Glycaemia [1, 5]: 14.66 +/− 0.47 mM/l; Insulinaemia [1, 5]: **1.92 +/− 0.8 μU/ml; Lactates [1, 5]: **1.33 +/− 0.15 mM/l; Triglycerides [1, 5]: 1.04 +/− 0.10 mM/l; Cholesterol [1, 6]: 1.04 +/− 0.02 mM/l; Glycaemia [1, 6]: 6.49 +/− 0.13 mM/l; Insulinaemia [1, 6]: 12.7 +/− 0.6 μU/ml; Lactates [1, 6]: 2.33 +/− 0.12 mM/l; Triglycerides [1, 6]: 0.88 +/− 0.06 mM/l; Cholesterol [1, 7]: 1.49 +/− 0.04 mM/l; Glycaemia [1, 7]: 14.66 +/− 0.73 mM/l; Insulinaemia [1, 7]: 17.0 +/− 1.0 μU/ml; Lactates [1, 7]: 2.67 +/− 0.17 mM/l; Triglycerides [1, 7]: 1.01 +/− 0.05 mM/l; Cholesterol [1, 8]: 1.52 +/− 0.06 mM/l; Glycaemia [1, 8]: **13.70 +/− 0.66 mM/l; Insulinaemia [1, 8]: **21.0 +/− 1.4 μU/ml; Lactates [1, 8]: **1.38 +/− 0.13 mM/l; Triglycerides [1, 8]: 0.93 +/− 0.04 mM/l; Glycaemia ([1]; glibenclamide 2 mg/kg/day orally in two doses, D29 (after eight days of treatment), listed as glibenclamide): 13.70 +/− 0.66 mM/l; Decrease in glycaemia ([1]; glibenclamide alone 2 mg/kg/day, D29 vs D21): 6.51%; Effect on insulinaemia [1, 9]: still higher on average; Effect on lactate levels [1, 9]: significantly reduced; Effect on glycaemia ([1]; glibenclamide higher dose 2 mg/kg/day, D29 vs D21, paired t test): significantly decreases; Effect on glycaemia [1, 10]: does not modify; Effect on insulinaemia [1, 10]: significant increase; Effect on level of circulating lactates [1, 10]: decrease; Minimum active dose ([1]; orally in two doses, eight days, NIDD STZ rats): 2 mg/kg/day; Activity of daily dose [2]: inactive

Which results are given for `CN(C)C(=N)N=C(N)N` [Metformin, metformin]?
glycaemia at D29 (% of D21) ([1]; Metformin 30 mg/kg/day): 86%; Glycaemia at D29 as percent of D21 ([1]; Metformin 30 mg/kg/day): 86.03 +/− 4.29%; Cholesterol [1, 11]: 1.00 +/− 0.07 mM/l; Glycaemia [1, 11]: 6.38 +/− 0.23 mM/l; Insulinaemia [1, 11]: 12.8 +/− 0.2 μU/ml; Lactates [1, 11]: 2.47 +/− 0.15 mM/l; Triglycerides [1, 11]: 0.96 +/− 0.12 mM/l; Cholesterol [1, 12]: 1.57 +/− 0.08 mM/l; Glycaemia [1, 12]: 14.41 +/− 0.36 mM/l; Lactates [1, 12]: 2.53 +/− 0.09 mM/l; Triglycerides [1, 12]: 1.05 +/− 0.03 mM/l; Effect on lactates ([1]; metformin 30 mg/kg/day, eight days): tendency to increase; Cholesterol [1, 13]: 1.48 +/− 0.06 mM/l; Glycaemia [1, 13]: **12.35 +/− 0.49 mM/l; Insulinaemia [1, 13]: 17.3 +/− 0.7 μU/ml; Lactates [1, 13]: *2.70 +/− 0.11 mM/l; Triglycerides [1, 13]: 0.96 +/− 0.05 mM/l; Decrease in glycaemia ([1]; metformin alone 30 mg/kg/day, D29 vs D21): 13.7%
